Data from patent publication US20230414735A1, “NEOANTIGENS AND METHODS OF THEIR USE” (priority 2016, published 2023).
Like-named read-outs stand apart in the source and are kept apart here. Where a SMILES comes first, the peptide text is derived from it. Where no end group is shown, it is not given here.

Legend:
HLA class I molecule [1] = biological target: T1, HLA class I molecule (Homo sapiens, UniProt P04439); test: HLA class I peptide binding affinity assay (inhibition of 125I-radiolabeled probe peptide binding to purified HLA); settings: Allele A03.01; read-out: Observed Affinity (IC50; (nM))
T1 construct: made in house; host or cells: EBV-transformed homozygous cell lines, fibroblasts, CIR or 721.22 transfectants; purified from detergent lysates on an anti-HLA antibody column
T1 sequence (P04439 25-365): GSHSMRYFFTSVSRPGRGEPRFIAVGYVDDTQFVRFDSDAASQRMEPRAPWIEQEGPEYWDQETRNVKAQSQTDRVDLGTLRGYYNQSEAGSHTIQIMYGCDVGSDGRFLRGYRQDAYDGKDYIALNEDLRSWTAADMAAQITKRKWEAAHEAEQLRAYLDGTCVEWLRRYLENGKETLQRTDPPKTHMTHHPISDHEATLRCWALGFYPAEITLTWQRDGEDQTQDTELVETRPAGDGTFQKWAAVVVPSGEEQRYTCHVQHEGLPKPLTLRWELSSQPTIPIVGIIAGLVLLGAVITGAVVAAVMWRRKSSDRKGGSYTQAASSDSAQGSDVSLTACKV
T1 sequence (P61769 21-119 partner): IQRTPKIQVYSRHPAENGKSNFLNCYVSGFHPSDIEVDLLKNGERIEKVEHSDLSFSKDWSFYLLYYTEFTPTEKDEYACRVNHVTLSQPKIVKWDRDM
How it was run: (§1)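 Competition by test peptides for binding of an iodinated (chloramine-T) probe peptide to affinity-purified HLA class I from EBV-transformed lines or transfectants. Bound and free peptide separated by TSK gel filtration with radioactivity detection. IC50 approximates KD ([label]<[HLA], IC50≥[HLA]), also compiled as relative binding against positive controls.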

[2] = system: HLA-A02:01+ T cells (CD8+ T cells); test: Immunogenicity assay: CD8+ T cell expansion with peptide-loaded monocyte-derived dendritic cells, multimer/tetramer staining; assay type: cell-based, human; settings: HLA-A02:01^+ T cells co-cultured 10 days with peptide-loaded monocyte-derived dendritic cells; initial and validation multimer preparations; shown as examples of positive multimer staining (FIGS. 3-6)
Procedure: Immunogenicity assays are used to test the ability of each test peptide to expand T cells. Mature professional APCs are prepared for these assays in the following way. Monocytes are enriched from healthy human donor PBMCs using a bead-based kit (Miltenyi). Enriched cells are plated in GM-CSF and IL-4 to induce immature DCs. After 5 days, immature DCs are incubated at 37° C. with each peptide for 1 hour before addition of a cytokine maturation cocktail (GM-CSF, IL-1β, IL-4, IL-6, TNFα, PGE1β). Cells are incubated at 37° C. to mature DCs.
After maturation of DCs, PBMCs (either bulk or enriched for T cells) are added to mature dendritic cells with proliferation cytokines. Cultures are monitored for peptide-specific T cells using a combination of functional assays and/or tetramer staining Parallel immunogenicity assays with the modified and parent peptides allowed for comparisons of the relative efficiency with which the peptides expanded peptide-specific T cells.
Tetramer Staining. MHC tetramers are purchased or manufactured on-site, and are used to measure peptide-specific T cell expansion in the immunogenicity assays. For the assessment, tetramer is added to 1×10^5 cells in PBS containing 1% FCS and 0.1% sodium azide (FACS buffer) according to manufacturer's instructions. Cells are incubated in the dark for 20 minutes at room temperature. […] Cells are washed with cold FACS buffer and resuspended in buffer containing 1% formaldehyde. Cells are acquired on a FACS Calibur (Becton Dickinson) instrument, and are analyzed by use of Cellquest software (Becton Dickinson). For analysis of tetramer positive cells, the lymphocyte gate is taken from the forward and side-scatter plots. Data are reported as the percentage of cells that were CD8^+/Tetramer^+.
Immunogenicity assays were carried out to assess whether each peptide can elicit a T cell response by antigen-specific expansion. […] Each positive result was measured with a second multimer preparation to avoid any preparation biases.

HLA class I molecule [3] = test: HLA class I peptide binding affinity assay (inhibition of 125I-radiolabeled probe peptide binding to purified HLA); parameters: species or system human; settings: read-out: Observed Affinity (IC50, (nM))
How it was run: as §1

HLA Class I molecules = test: HLA class I binding stability assay (pMHC-I complex dissociation, 125I-labeled β2m, scintillation counts); parameters: species or system human
Procedure: These reactions are carried out in streptavidin coated microplates to bind th biotinylated MHC-I heavy chains to the surface and allow measurement of radiolabeled light chain to monitor complex formation. Dissociation is initiated by addition of higher concentations of unlabled light-chain and incubation at 37° C. Stability is defined as the length of time in hours it takes for half of the complexes to dissociate, as measured by scintillation counts

[4] = system: ovarian carcinoma patients; settings: ovarian carcinoma patients immunized with poly-ICLC in combination with a NYESO-1 peptide vaccine (in addition to Montanide); phase 1 study; cited from earlier work
[5] = allele A02.01, pMHC-I dissociation at 37° C.
[6] = allele A24.02, pMHC-I dissociation at 37° C.

For `CC[C@H](C)[C@H](NC(=O)[C@H](Cc1c[nH]c2ccccc12)NC(=O)[C@H](CS)NC(=O)[C@H](Cc1ccccc1)NC(=O)[C@@H](N)Cc1ccccc1)C(=O)N[C@@H](CC(C)C)C(=O)N[C@@H](CO)C(=O)N[C@@H](CS)C(=O)N[C@@H](CCCCN)C(=O)O` (H-FFCWILSCK-OH), the IC50 (HLA class I molecule [1]) was 185 nM.

In the case of ALNSEALSV [HLA-A02:01], the “antigen-specific (multimer-double-positive) CD8^+ T cells, multimer staining” value (shortened to “antigen-specific”) [2] is reported as “antigen-specificity”.

In the case of KGPELFPLI, the IC50 (HLA class I molecule [3]; allele A02.01) is reported as 101 nM, the IC50 (HLA class I molecule [3]; allele A24.02) is reported as 14 nM and the “Stability (T1/2 (h))” value (HLA Class I molecules; [5]) is reported as 0.3 h. For the same compound, the “Stability (T1/2 (h))” value (HLA Class I molecules; [6]) was 1.7 h.

For KLFSCLSFL, the IC50 (HLA class I molecule [3]; allele A02.01) was 6 nM, the “Stability (T1/2 (h))” value (HLA Class I molecules; [5]) was 14.3 h and the “Stability (T1/2 (h))” value (HLA Class I molecules; allele A03.01, pMHC-I dissociation at 37° C.) was 0.8 h.

In the case of KLGGGQHGEV, the IC50 (HLA class I molecule [3]; allele A02.01) is reported as 387 nM and the “Stability (T1/2 (h))” value (HLA Class I molecules; [5]) is reported as 0.4 h.

With LLAFWDSQV the IC50 (HLA class I molecule [3]; allele A02.01) was 68 nM and the “Stability (T1/2 (h))” value (HLA Class I molecules; allele A02.01, 37° C.) was 12.8 h.

For LLCVWVSSI [HLA-A02:01], the “antigen-specific” value [2] was “antigen-specificity”.

In the case of LLQEFDVQEA, the IC50 (HLA class I molecule [3]; allele A02.01) is reported as 45 nM and the “Stability (T1/2 (h))” value (HLA Class I molecules; allele A02.01, 37° C.) is reported as 2.5 h.

For LMELMAGGDL, the IC50 (HLA class I molecule [3]; allele A02.01) was 311 nM and the “Stability (T1/2 (h))” value (HLA Class I molecules; [5]) was 8.9 h.

With LQMDFLVHPA the IC50 (HLA class I molecule [3]; allele A02.01) was 68 nM and the “Stability (T1/2 (h))” value (HLA Class I molecules; [5]) was 1.5 h.

For LVVVGACGV, the IC50 (HLA class I molecule [3]; allele A02.01) was 1210 nM and the “Stability (T1/2 (h))” value (HLA Class I molecules; allele A02.01, 37° C.) was 0.6 h.

For MNIANLLGA, the IC50 (HLA class I molecule [3]; allele A02.01) was 128 nM and the “Stability (T1/2 (h))” value (HLA Class I molecules; allele A02.01, 37° C.) was 0.3 h.

With MNWRPILTII the IC50 (HLA class I molecule [3]; allele A02.01) was 1030 nM and the “Stability (T1/2 (h))” value (HLA Class I molecules; allele A02.01, 37° C.) was 0.4 h.

For PLCDLLLEM, the IC50 (HLA class I molecule [3]; allele A02.01) was 602 nM and the “Stability (T1/2 (h))” value (HLA Class I molecules; [5]) was 0.8 h.

For PLCDLLLEML, the IC50 (HLA class I molecule [3]; allele A02.01) was 2010 nM and the “Stability (T1/2 (h))” value (HLA Class I molecules; [5]) was 0.9 h.

In the case of PLNDLLLEM, the IC50 (HLA class I molecule [3]; allele A02.01) is reported as 151 nM and the “Stability (T1/2 (h))” value (HLA Class I molecules; [5]) is reported as 4.2 h.

For PLSDLLLEM, the IC50 (HLA class I molecule [3]; allele A02.01) was 404 nM and the “Stability (T1/2 (h))” value (HLA Class I molecules; [5]) was 2.7 h.

In the case of PLYGLLLEM, the IC50 (HLA class I molecule [3]; allele A02.01) is reported as 640 nM and the “Stability (T1/2 (h))” value (HLA Class I molecules; [5]) is reported as 0.7 h.

In the case of RVAKIADFGM, the IC50 (HLA class I molecule [3]; allele A02.01) is reported as 125 nM, the “Stability (T1/2 (h))” value (HLA Class I molecules; [5]) is reported as 0.5 h and the “Stability (T1/2 (h))” value (HLA Class I molecules; allele B07.02, pMHC-I dissociation at 37° C.) is reported as 0.2 h.

For SLYIVGFYGA, the IC50 (HLA class I molecule [3]; allele A02.01) was 390 nM and the “Stability (T1/2 (h))” value (HLA Class I molecules; allele A02.01, 37° C.) was 0.4 h.

With SMLTDSLFL the IC50 (HLA class I molecule [3]; allele A02.01) was 31 nM and the “Stability (T1/2 (h))” value (HLA Class I molecules; allele A02.01, 37° C.) was 9.8 h.

In the case of SMLTGPPARV [HLA-A02:01], the “antigen-specific” value [2] is reported as “antigen-specificity”.

For VLHECNSLYI, the IC50 (HLA class I molecule [3]; allele A02.01) was 10 nM and the “Stability (T1/2 (h))” value (HLA Class I molecules; allele A02.01, 37° C.) was 5.1 h.

With VLHESNSPYI the IC50 (HLA class I molecule [3]; allele A02.01) was 131 nM and the “Stability (T1/2 (h))” value (HLA Class I molecules; allele A02.01, 37° C.) was 1.9 h.

In the case of VLLSVHLIV, the IC50 (HLA class I molecule [3]; allele A02.01) is reported as 72 nM and the “Stability (T1/2 (h))” value (HLA Class I molecules; [5]) is reported as 11 h.

With VLTVTSTDV the IC50 (HLA class I molecule [3]; allele A02.01) was 295 nM and the “Stability (T1/2 (h))” value (HLA Class I molecules; allele A02.01, 37° C.) was 1.1 h.

For VMAGLGSPYV, the IC50 (HLA class I molecule [3]; allele A02.01) was 102 nM and the “Stability (T1/2 (h))” value (HLA Class I molecules; allele A02.01, 37° C.) was 2.9 h.

For VMAYVMAGV, the IC50 (HLA class I molecule [3]; allele A02.01) was 2 nM and the “Stability (T1/2 (h))” value (HLA Class I molecules; allele A02.01, 37° C.) was 16.5 h.

In the case of WLHKRGKYI, the IC50 (HLA class I molecule [3]; allele A02.01) is reported as 1250 nM, the IC50 (HLA class I molecule [3]; allele B08.01) is reported as 417 nM and the “Stability (T1/2 (h))” value (HLA Class I molecules; [5]) is reported as 1.2 h. The “Stability (T1/2 (h))” value (HLA Class I molecules; allele B08.01, pMHC-I dissociation at 37° C.) was 1.3 h.

With WMTETLFDI the IC50 (HLA class I molecule [3]; allele A02.01) was 14 nM and the “Stability (T1/2 (h))” value (HLA Class I molecules; allele A02.01, 37° C.) was 4 h.

With WMTETLFDIV the IC50 (HLA class I molecule [3]; allele A01.01) was 14400 nM, the IC50 (HLA class I molecule [3]; allele A02.01) was 40 nM and the “Stability (T1/2 (h))” value (HLA Class I molecules; allele A02.01, 37° C.) was 0.4 h.

For YLGNHMNIA, the IC50 (HLA class I molecule [3]; allele A02.01) was 117 nM, the IC50 (HLA class I molecule [3]; allele B08.01) was 872 nM and the “Stability (T1/2 (h))” value (HLA Class I molecules; allele A02.01, 37° C.) was 0.6 h.

With YLVIQLQDKF the IC50 (HLA class I molecule [3]; allele A02.01) was 2060 nM, the IC50 (HLA class I molecule [3]; allele A24.02) was 2150 nM and the “Stability (T1/2 (h))” value (HLA Class I molecules; [6]) was 2.6 h.

In the case of YQQQQQSDL, the IC50 (HLA class I molecule [3]; allele A02.01) is reported as 799 nM, the IC50 (HLA class I molecule [3]; allele B08.01) is reported as 18900 nM and the “Stability (T1/2 (h))” value (HLA Class I molecules; allele A02.01, 37° C.) is reported as 0.4 h.

In the case of poly-ICLC, the “patients showing induction of CD4+ and CD8+ T cell, as well as antibody responses to the peptide” value [4] is given as over 90%.
